Experimental data from paper PMC6154605, “Multi-Anti-Parasitic Activity of Arylidene Ketones and Thiazolidene Hydrazines against Trypanosoma cruzi and Leishmania spp” (Molecules : A Journal of Synthetic Chemistry and Natural …, 2017).
Like-named read-outs stand apart in the source and are kept apart here. Marks after values point to notes of the source that are not given here.

Columns and labels:
[1] = test system: L. braziliensis promastigotes; experiment: Leishmanicidal activity on promastigotes, resazurin; assay type: cell-based, Leishmania braziliensis; conditions: for IC50: 48 h, read-out: IC50 ± SD Promastigotes L. braziliensis; for SI NCTC/ L. braziliensis: ratio IC50 mammalian cell / IC50 parasite (promastigotes)
Text: (§1) We initially selected compounds previously reported to have anti-T. cruzi activity from our chemical library to evaluate their leishmanicidal activity. […]. To evaluate their activity in Leishmania spp., we performed a phenotypic screening using the promastigote form of L. infantum (MHOM/FR/91/LEM-2259) and L. braziliensis ([…]) (Table 1A for the thiazolidenehydrazine derivate and Table 1B for the arylideneketones family).
(§2) A culture of L. braziliensis (MHOM/BR/75/M2904) and L. infantum (MHOM/FR/91/LEM2259V) was obtained from the Facultad de Farmacia (Universidad Complutense, Madrid, Spain). The maintenance of the strains, the form of cultivation and the isolation of the shape of the promastigote were performed following the procedures described by Roldos et al.. The promastigotes were grown at 22 °C in Schneider’s Drosophila medium supplemented with 20% FBS. The assay was performed using a modification of a previous method. Promastigotes (2 × 10^6 parasites/well) were cultivated in 96-well plastic plates. Compounds were dissolved in dimethylsulfoxide (DMSO). Different dilutions of the compounds with a final volume up to 200 µL were added. After 48 h at 26 °C, 20 µL of a 2 mM resazurin solution were added, and the oxidation-reduction was quantified at 570 and 600 nm. The solution of resazurin was prepared at 2.5 mM in phosphate buffered solution (PBS), pH 7.4, and filtered through 0.22-µm membranes prior to use. All tests were carried out in triplicate. Resazurin sodium salt was obtained from Sigma-Aldrich (St. Louis, MO, USA) and stored at 4 °C protected from light. The efficacy of each compound was estimated by calculating the IC50 values. Each antiproliferative experiment was done in duplicate, and each concentration was tested in triplicate.

[2] = test system: L. infantum promastigotes; experiment: as above; assay type: cell-based, Leishmania infantum; conditions: for IC50: 48 h, read-out: IC50 ± SD Promastigotes L. infantum; for SI NCTC/ L. infantum: ratio IC50 mammalian cell / IC50 parasite (promastigotes)
Text: as §1, §2

[3] = test system: NCTC929 fibroblasts; experiment: Nonspecific cytotoxicity on fibroblasts, resazurin; assay type: cell-based; conditions: NCTC-929, 24 h; read-out: IC50 ± SD Fibroblast NCTC929
Description: To establish the selectivity of the compounds against the parasites, nonspecific cytotoxicity against mammalian cells, using J774.1 murine macrophages and fibroblast NCTC929, was studied for the most relevant derivatives. The selectivity indexes were calculated as the ratio between cytotoxicity for mammalian cells and the anti-parasitic activity (Table 2).
NCTC-Clone 929 were grown in minimal essential medium (Sigma) supplemented with 10% heat-inactivated FBS, penicillin G (100 U/mL) and streptomycin (100 µg/mL). Cell cultures were maintained at 37 °C in a humidified 5% CO2 atmosphere. The procedure for cell viability measurement was evaluated with resazurin by a colorimetric method. The cells were plated in 96 microtiter plates at 3.00 × 10^4 cells/well in 100 µL growth medium. The cells were grown overnight at 37 °C, 5% CO2. Thereafter, the medium was removed, and the compounds were added to 200 µL of medium for 24 h. After incubation, 20 µL of a 2 mM resazurin solution were added to each well. The plates were incubated for 3 h to allow optimal oxidation-reduction. The reduction of resazurin was determined by dual wavelength absorbance measurement at 490 and 595 nm. The background was subtracted. Each concentration was assayed three times. Medium and drug controls were used in each test as blanks.

[4] = test system: T. cruzi epimastigotes, Tulahuen 2 strain (genotype TcVI); conditions: cited from earlier work; for SI J774.1/ T. cruzi: ratio IC50 mammalian cell / IC50 parasite (epimastigotes); for IC50: read-out: IC50 ± SD Epimastigotes T. cruzi
[5] = test system: J774.1 murine macrophages; conditions: J774.1; read-out: IC50 ± SD Murine Macrophages; cited from earlier work
[6] = test system: T. cruzi epimastigotes, Tulahuen 2 strain (genotype TcVI); experiment: In vitro anti-T. cruzi activity, growth inhibition of epimastigotes; assay type: cell-based, Trypanosoma cruzi; conditions: for IC50: Trypanosoma cruzi, TULAHUEN; for Trypanocidal activity on T. cruzi in words: molecular stripping, epimastigotes
Description: For the in vitro anti-T. cruzi activity, we used epimastigotes of the Tulahuen 2 strain (genotype TcVI) grown in an axenic milieu (BHI-Tryptose). Cells from a 5–7-day-old culture were inoculated in fresh culture milieu to give an initial concentration of 1.00 × 10^6 cells/mL. The absorbance at 600 nm of the cells in culture was measured every day. At Day 5, the milieu was inoculated with different quantities of the compounds from a stock solution in DMSO (DMSO concentration in the culture milieu never exceeded 0.4%). The control was made in the presence of 0.4% DMSO and in the absence of compounds. Each concentration of compound was evaluated in duplicate. At Day 5, the absorbance of the culture was measured and related to the control. […] Each antiproliferative experiment was done in duplicate, and each concentration was tested in triplicate.

[7] = test system: zebrafish embryos; experiment: Zebrafish embryo toxicity test (LD50)
Description: […] Only embryos that were clearly undamaged after 60 min of observation were kept and subsequently used. Dechorionated embryos were further manipulated using flame-rounded tip glass Pasteur pipettes. […] In all cases, the embryos were incubated in system water with 1% DMSO (negative control) and the compound at different doses between 8 and 96 hpf. The treatment solution was changed daily. […] At selected time points, namely 24, 48, 72 and 96 hpf, embryotoxicity (= mortality) and morphological characteristics of the embryos were evaluated using a Nikon SMZ800 stereomicroscope. The embryos were evaluated for the presence and morphological development (as appropriate) of somites, tail detachment, eyes, heart beat and blood circulation. All individuals were evaluated at all time points.

[8] = Tulahuen 2 strain, read-out: IC50 ± SD Epimastigotes T. cruzi
[9] = Figure 4, molecular stripping of HIT1, read-out: Effect of structural change on trypanocidal activity (emoticon code)

O=C(/C=C/c1ccco1)/C=C/c1ccco1 [EA134]
IC50 ([1]; Leishmania braziliensis): 10 ± 6 µM | SI NCTC/ L. braziliensis [1]: 11 | IC50 ([2]; Leishmania infantum): 6 ± 2 µM | SI NCTC/ L. infantum [2]: 19 | IC50 [3]: 114 ± 2 µM | SI J774.1/ T. cruzi [4]: 5 ^c | IC50 [4]: 24 ± 2 µM | IC50 [5]: 115 ± 6 µM

O=C(/C=C/C=C/c1ccccc1)/C=C/C=C/c1ccccc1 [EA139]
IC50 [6, 8]: 11 ± 1 µM | IC50 ([1]; Leishmania braziliensis): > 25 µM | IC50 ([2]; Leishmania infantum): > 25 µM

O=C(/C=C/C=C/c1cccs1)/C=C/C=C/c1cccs1 [EA141]
IC50 ([1]; Leishmania braziliensis): 36 ± 3 µM | SI NCTC/ L. braziliensis [1]: 47 | IC50 ([2]; Leishmania infantum): 19 ± 5 µM | SI NCTC/ L. infantum [2]: 90 | IC50 [3]: 1700 ± 40 µM | SI J774.1/ T. cruzi [4]: 1 ^c | IC50 [4]: 12.6 ± 1.4 µM | IC50 [5]: 10 ± 2 µM

O=C1/C(=C/c2ccccc2)CCC/C1=C\c1ccccc1 [EA142]
IC50 ([1]; Leishmania braziliensis): 4.2 ± 0.7 µM | IC50 ([2]; Leishmania infantum): 9.6 ± 0.9 µM | IC50 [4]: 5.1 ± 0.3 µM

O=C1/C(=C/C=C/c2ccccc2)CCC/C1=C\C=C\c1ccccc1 [EA143]
IC50 [6, 8]: 14 ± 3 µM | IC50 ([1]; Leishmania braziliensis): > 25 µM | IC50 ([2]; Leishmania infantum): > 25 µM

O=C(/C=C/C=C/C=C/c1cccs1)/C=C/C=C/C=C/c1cccs1 [EA152]
IC50 [6, 8]: > 25 µM | IC50 ([1]; Leishmania braziliensis): > 100 µM | IC50 ([2]; Leishmania infantum): 30 ± 8 µM

O=C1/C(=C/c2ccco2)CCC/C1=C\c1ccco1 [EA154]
IC50 [6, 8]: 7 ± 2 µM | IC50 ([1]; Leishmania braziliensis): > 25 µM | IC50 ([2]; Leishmania infantum): > 25 µM

O=C1/C(=C/C=C/c2cccs2)CCC/C1=C\C=C\c1cccs1 [EA156]
IC50 ([1]; Leishmania braziliensis): > 100 µM | IC50 ([2]; Leishmania infantum): 16 ± 3 µM | SI NCTC/ L. infantum [2]: 124 | IC50 [3]: 1980 ± 20 µM | SI J774.1/ T. cruzi [4]: 33 ^c | IC50 [4]: 0.6 ± 0.2 µM | IC50 [5]: 20 ± 1 µM

O=C1/C(=C/C=C/c2cccs2)CC/C1=C\C=C\c1cccs1 [EA160]
IC50 ([1]; Leishmania braziliensis): > 100 µM | IC50 ([2]; Leishmania infantum): 11 ± 3 µM | SI NCTC/ L. infantum [2]: 446 | IC50 [3]: 4909 ± 36 µM | SI J774.1/ T. cruzi [4]: 375 ^c | IC50 [4]: 0.04 ± 0.01 µM | IC50 [5]: 15 ± 1 µM

O=C1/C(=C/C=C/c2ccco2)CC/C1=C\C=C\c1ccco1 [EA161]
IC50 ([1]; Leishmania braziliensis): 18 ± 4 µM | SI NCTC/ L. braziliensis [1]: 42 | IC50 ([2]; Leishmania infantum): 16 ± 4 µM | SI NCTC/ L. infantum [2]: 47 | IC50 [3]: 756 ± 17 µM | SI J774.1/ T. cruzi [4]: 4 ^c | IC50 [4]: 5.4 ± 1.6 µM | IC50 [5]: 19 ± 2 µM

Cc1ccc(/C=C/C=N/N2CCN(CC=Cc3ccccc3)CC2)o1 [GAT0413, (E)-4-cinnamyl-N-((E)-3-(5-methylfuran-2-yl)allylidene)piperazin-1-amine]
IC50 [6, 9]: 5 to 25 µM | IC50 [6, 8]: 12 ± 2 µM | Trypanocidal activity on T. cruzi in words [6]: the activity was restored | IC50 ([1]; Leishmania braziliensis): > 25 µM | IC50 ([2]; Leishmania infantum): > 25 µM

C=CCn1c(C(=O)CNN2CCN(CC=Cc3ccccc3)CC2)cs/c1=N/N=C\C=C\c1ccco1 [GAT0613, 1-((Z)-3-allyl-2-((E)-((E)-3-(furan-2-yl)allylidene)hydrazono)-2,3-dihydrothiazol-4-yl)-2-((4-cinnamylpiperazin-1-yl)amino)ethanone]
IC50 [6, 8]: 11 ± 4 µM | Trypanocidal activity on T. cruzi in words [6]: the activity was lost | IC50 ([1]; Leishmania braziliensis): 25 µM | IC50 ([2]; Leishmania infantum): > 25 µM | melting point: 150 to 153 °C

O=C(C=Cc1ccco1)N1CCN(CC=Cc2ccccc2)CC1 [GAT0804]
IC50 [6, 9]: > 25 µM

C=CCn1c(C(=O)NN2CCN(C/C=C/c3ccccc3)CC2)cs\c1=N/N=C/C=C/c1ccco1 [GAT1613]
IC50 [6, 8]: 20 ± 2 µM | Trypanocidal activity on T. cruzi in words [6]: the activity was lost

C(=C\c1ccco1)/C=N/N1CCN(Cc2ccccc2)CC1 [GAT1912, (E)-4-benzyl-N-((E)-3-(furan-2-yl)allylidene)piperazin-1-amine]
IC50 [6, 9]: > 25 µM | IC50 [6, 8]: > 25 µM | IC50 ([1]; Leishmania braziliensis): > 100 µM | IC50 ([2]; Leishmania infantum): > 100 µM | melting point: 145 to 147 °C

Nc1nc(-c2ccc(Cl)cc2)cs1 [GAT2012, 4(4-Chlorophenyl)-thiazol-2(3H)-ylidene-2-amine]
IC50 [6, 8]: > 25 µM | Trypanocidal activity on T. cruzi in words [6]: lack of activity

C=CCn1c(-c2ccc(Br)cc2)cs\c1=N/N=C/C(C)=C/c1ccco1 [GAT2015]
IC50 [1]: > 25 µM | IC50 [2]: > 25 µM

Clc1ccc(-c2csc(/N=C/C=C/c3ccco3)n2)cc1 [GAT2112, (E)-4-(4-Chlorophenyl)-N-((E)-3-(furan-2-yl)allylidene)thiazol-2-amine]
Trypanocidal activity on T. cruzi in words [6]: the activity was lost

C=CCn1c(-c2ccc(Cl)cc2)cs\c1=N/N=C/C=C/C=C/c1ccco1 [GATA2]
IC50 [6, 8]: 10 ± 2 µM

C=CCn1c(C(=O)N2CCSCC2)csc1=NN=CC=Cc1ccco1 [GATjm18]
IC50 [6, 8]: 2.7 ± 0.5 µM | Trypanocidal activity on T. cruzi in words [6]: the activity was maintained

C=CCn1c(C(=O)CN2CCN(c3ccccc3)CC2)csc1=NN=CC=Cc1ccco1 [GATk1, (2E,2Z)-2-(2-((E)-3-(furan-2-yl)propeniliden)hydrazono)-(3-allyl-2,3-dihydrothiazol-4-yl)-2-(4-phenylpiperazin-1-yl)ethanone]
IC50 [6, 9]: > 25 µM | IC50 [6, 8]: > 25 µM

C=CCn1c(C(=O)CN2CCSCC2)cs/c1=N/N=C\C=C\c1ccco1 [GATk2, 1-((Z)-3-allyl-2-((E)-((E)-3-(furan-2-yl)allylidene)hydrazono)-2,3-dihydrothiazol-4-yl)-2-thiomorpholinoethanone]
IC50 [6, 8]: 8 ± 1 µM

C=CCn1c(C(=O)CNCc2ccccc2)cs/c1=N/N=C\C=C\c1ccco1 [GATk4, 1-((Z)-3-allyl-2-((E)-((E)-3-(furan-2-yl)allylidene)hydrazono)-2,3-dihydrothiazol-4-yl)-2-(benzylamino)ethanone]
IC50 [6, 9]: > 25 µM | IC50 [6, 8]: > 25 µM

C=CCn1c(C(=O)CN2CCN(Cc3ccccc3)CC2)cs/c1=N/N=C\C=C\c1ccco1 [GATk5, 1-((Z)-3-allyl-2-((E)-((E)-3-(furan-2-yl)allylidene)hydrazono)-2,3-dihydrothiazol-4-yl)-2-(4-benzylpiperazin-1-yl)ethanone]
IC50 [6, 9]: > 25 µM | IC50 [6, 8]: > 25 µM

CC(=O)N1CCN(c2ccc(OCC3COC(Cn4ccnc4)(c4ccc(Cl)cc4Cl)O3)cc2)CC1 (centres unmarked) [Ketoconazole, reference compound]
LD50 without chorion ([7]; dechorionated zebrafish embryos, 72 h incubation): 12 ± 3 µM | LD50 with chorion ([7]; zebrafish embryos with chorion): > 25 µM

CN1C/C(=C\C=C\c2ccco2)C(=O)/C(=C/C=C/c2ccco2)C1 [Pg150, (3E,5E)-3,5-Bis((E)-3-(furan-2-yl)allylidene)-1-methylpiperidin-4-one]
IC50 [6, 8]: > 25 µM | Trypanocidal activity on T. cruzi in words [6]: the activity was completely lost | IC50 ([1]; Leishmania braziliensis): > 25 µM | IC50 ([2]; Leishmania infantum): > 25 µM
